Laboratory results: patent US20020026053A1, “Novel 3-(substituted) -2- indolinones compounds and use thereof as inhibitors of protein kinase activity” (priority 1997, published 2002)

System: PDGF-R
Assay: PDGF-R Assay (cellular ELISA, U1242 cells)
Format: cell-based
Set-up: concentration or dose not given beside the values
Details: protocol P.119
How it was run: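 U1242 cells seeded in 0.5% serum, serum-starved, then exposed to compound for 2 hr at 37°C before 5–10 min ligand stimulation and lysis in HNTG. Lysate captured on receptor-antibody-coated plates; phosphotyrosine detected with polyclonal anti-pTyr, goat anti-rabbit IgG and ABTS/H2O2, A410 (ref 630 nm), versus untreated cells.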

Cc1c(Br)cc(Br)c2c1C(=Cc1ccc(CO)o1)C(=O)N2 [10739/H11]
PDGF Kinase % Inhibition (P.119): 4.2%
